This is an account of results in patent publication US20140294729A1, “METHODS FOR IDENTIFICATION AND USE OF AGENTS TARGETING CANCER STEM CELLS” (Whitehead Institute for Biomedical Research, priority 2008, published 2014).

Holding throughout (assay type): cell-based, human
Assay [1] has as its system HMLE-Twist cells. As to the kind of experiment: Dose-response viability of HMLEshCntrl vs HMLE-Twist cells. Particulars: EMT induced by Twist, FIG. 4B. As to the method:
(§1) FIG. 4A depicts dose response curves of HMLEshCntrl (A, light gray curve) and HMLEshEcad (A, dark gray curve) cells treated with the 8 compounds identified during the initial screen. 1000 cells of each line were seeded onto 384 well plates and treated with 8 different concentrations of compounds within a 2.5 log range. The cell viability after 3 day treatment was measured by Cell-Titer-Glo. […] FIG. 4B depicts dose response curves of HMLEshCntrl (curve with square data points) and HMLE-Twist (curve with triangular data points) cells treated with the same compounds as in (A). Note that selectivity of Salinomycin, Abamectin, Etoposide and Nigericin (Top, Left-to-Right) is retained even though a different method of EMT induction is used. […] 1 Day after seeding DMSO, Salinomycin (1.25 or 5 μM) or Abamectin (0.25 or 1.25 μM) was added at the indicated concentration. As the GFP vector contains a Blasticidin resistance gene, we used Blasticidin treatment as a positive control for the expansion of GFP-expressing control HMLE cells. After 3 day incubation the mix population of cells were analyzed by flow cytometry and the percentage of GFP-positive cells were determined. […] FIG. 4D depicts dose response curves of transformed HMLERshCntrl (light gray line) and HMLERshEcad (dark gray lines) cells treated with Salinomycin and Abamectin. Dotted line denotes the 50% fraction surviving.
(§2) Individual compounds were purchased from Sigma and dissolved in DMSO with the exception of nigericin which was dissolved in 100% ethanol. Activity of the compounds were quantified by generating dose-response curves for HMLE-shCntrl, HMLE-shEcad and HMLE-Twist under the same cell density and culture conditions described for the initial screen, using the 384-well plate based system.

In assay [2] the test system is HMLEshEcad cells. The experiment in a line: High-throughput chemical screen for selective toxicity, HMLEshEcad vs HMLEshCntrl (ATP luminescence viability). The settings on record: for most compounds 10 uM, 3 days, duplicate. As for the experimental part: We screened compounds for cytotoxicity against both HMLEshEcad and control HMLEshCntrl cells. Cells were seeded in 384-well plates, allowed to grow for one day, treated with compound and assayed for cell viability after three days using a luminescence assay; compounds were screened in duplicate for each cell line (FIG. 3A; See Example 3). We screened a collection of ˜16,000 compounds, including many with known bioactivity, natural extracts, modulators of histone deacetylases, and several diverse commercial libraries.
We developed conditions to use an ATP-based luminescence viability assay with 384-well plates in high throughput screening (see Example 3 for Methods). We screened a total of 16,000 compounds as part of our screen. […]
Using the measurements from the plate-normalized DMSO control wells, we constructed the distribution of luminescence intensities for each cell line in the absence of compound (FIG. 3A). […]
Information about the general automated HTS protocol is available online at broad.harvard.edu/chembio/index.html. […] For most compounds the final concentration in each well was calculated to be 10 uM.
The screen was performed in duplicate. […] The luminescent signal from each plate was detected using an automated plate reader (Perkin-Elmer Envision 1; Wellesley, Mass.). […]

The subject of assay [3] is HMLEshEcad cells. As to the kind of experiment: Dose-response viability of HMLEshCntrl vs HMLEshEcad cells (validation of hits, 384-well, Cell-Titer-Glo). The settings on record: FIG. 4A; for selective toxicity towards HMLEshEcad cells relative to HMLEshCntrl cells: dose response on retesting. As to the method: as §1
We pursued 8 of the 32 compounds for further study and evaluated their effects across a range of doses.
For each of these compounds, we evaluated the effect on cell viability across a series of doses for sibling cell lines either induced into or not induced into EMT.
Information about the general automated HTS protocol is available online at broad.harvard.edu/chembio/index.html. The assay was initiated by plating 40 μL of medium containing 1000 cells/well into white 384-well opaque-bottom plates (Nunc, Rochester, N.Y.) using an automated plate filler (Bio-Tek μFiller; Winsooki, Vt.) and allowing the cells to adhere for 24 hours. 100 nL of compound stock solutions in dmso was transferred from stock plates into the 384-well assay plates using an automated pin-based compound transfer robot (CyBio CyBi-Well vario; Woburn, Mass.). For most compounds the final concentration in each well was calculated to be 10 uM.
The screen was performed in duplicate. For negative controls, entire dmso-treated control plates were employed, in addition to dmso-only control wells that were incorporated into each compound assay plate. The cells were assayed for luciferase activity with the addition 20 ul of CellTiter-Glo Luminescent Cell Viability Assay solution (Promega). The luminescent signal from each plate was detected using an automated plate reader (Perkin-Elmer Envision 1; Wellesley, Mass.).
as §2

Molecules are shown by their SMILES. Entries after “also recorded” stand apart in the source; their conditions may differ.

Turning to `COc1cc([C@@H]2c3cc4c(cc3[C@@H](O[C@@H]3O[C@@H]5CO[C@@H](C)O[C@H]5[C@H](O)[C@H]3O)[C@H]3COC(=O)[C@H]23)OCO4)cc(OC)c1O` [etoposide], in assay [1], the “selectivity for HMLE-Twist cells vs HMLEshCntrl; dose-response curves compared with HMLEshEcad” value is “is retained”. In addition, in assay [2], the “specific toxicity towards HMLEshEcad (siEcad) line in the primary screen” value is on record as “did score positively”. In assay [3] (3 day treatment, 8 concentrations), the “IC50 fold lower for HMLEshEcad cells vs HMLEshCntrl cells” value was approximately 10 fold. In addition, the figures for the “selective toxicity towards HMLEshEcad cells relative to HMLEshCntrl cells” value in assay [3] and in assay [3] (listed as Etoposide) were “moderate to strong selectivity; also recorded: strong specificity” and “selective toxicity”, respectively.
For `CN(Cc1cnc2nc(N)nc(N)c2n1)c1ccc(C(=O)N[C@@H](CCC(=O)O)C(=O)O)cc1` [methotrexate], the “specific toxicity towards HMLEshEcad (siEcad) line in the primary screen” value in assay [2] is given as “did score positively”.
